Measured values: patent US20170290820A1, “METHODS AND COMPOSITIONS FOR TREATING BETA-THALASSEMIA AND SICKLE CELL DISEASE” (Academia Sinica, priority 2013, published 2017)

Assays:
[1] = system: ε globin; assay: absolute quantitative RT-PCR, proportion of ε globin mRNA; format: cell-based; settings: primary human erythroid cells, at IC50, 3 days; mock 0.0%
Description: (§1) After 3 days of drug-treatment, the total RNA was extracted by RNA Spin mini kit (Ge-Healthcare) and reverse-transcription was performed by using superscript II (Invitrogen) followed the manufactors instruction. Quantitative PCR was performed on LightCycler with using STBR green master mix followed the manufactors instruction (Roche). The absolute quantitative RT-PCR was calculated by the standard curve with supplying a known copy number of plasmids. The relative quantitative RT-PCR was normalized to the expression levels of the β-actin and compared to the mock control.
(§2) To evaluate the specificity of S51021, SS-2394, HU, and NaB in mediating globin genes activation, the amounts of individual P3-liked globin mRNAs were measured by absolute quantitative RT-PCR.
(§3) The primary human erythroid cells were treated with HU (145.9 μM), NaB (221.6 μM), S51021 (21.8 μM) or SS2394 (2.3 μM) for 3 days, and the expression levels of each globin mRNA were estimated by absolute quantitative RT-PCR analysis. The proportions of individual 3-like globin chains among the total 3-like globin mRNA are shown. Data are presented as the mean±SEM, N=3.

[2] = system: γ globin gene; assay: γ globin gene induction by relative quantitative RT-PCR; format: cell-based, human; settings: for γ globin induction (IC50): Table 3, γ globin mRNA induction fold at the compound's IC50, 3 days
Description: as §1
To search for new agents, which are capable of inducing the expression of γ globin, a series of naphthalimide derivatives with various substituent(s) on the naphthalene ring and the heterocyclic N-atom (A1-A14, B1-B4, C1-C5, D1, and E1-E3, FIG. 2) were synthesized. These derivatives were subjected to evaluating the γ globin induction abilities in differentiated peripheral blood mononuclear cells (PBMCs). The PBMCs isolated from the peripheral blood of donors were expanded and differentiated for a total of 14 days in a two-phase liquid culture. The resulted primary erythoid cells were then treated with different dosages of naphthalimide derivatives individually for another 3 days. The expression levels of the endogenous γ globin gene were estimated by relative quantitative RT-PCR and the proliferation rates of these cells were examined by AlamarBlue cell viability assay. […]; 2-4.5-folds induction of the γ globin gene expression in the compounds-treated cells (FIG. 3).

[3] = system: p38; assay: p38 phosphorylation by western blot; format: cell-based, human; settings: FIG. 5; western blot p-p38/p38, at IC50
Description: FIG. 5 is a graph showing the phosphorylation status of p38 in primary erythroid cells treating with HU, NaB, S51021, or SS-2394. Upper panel: For detection of the phosphorylation status of p38, twenty microgram of total cell lysate extracted from the primary human erythroid cells treated with HU (145.9 μM), NaB (221.6 μM), S51021 (21.8 μM) or SS-2394 (2.3 μM) was analyzed by Western blot analysis using antibody against p-p38 or p38. Lower panel: The signal intensity was quantified by an image-analyzing software. The intensity of p-p38 levels of mock control cells was set as 1. Data are shown as the mean±SEM, N=5.
After 3 days of compound treatment, total protein or histone of the drug-treated cells was extracted. Histone was extracted by histone extraction buffer (10 mM HEPES, 1.5 mM MgCl2, 10 mM KCl, 0.5 mM DTT, 1.5 mM PMSF and 0.2 N HCl) at 4° C. overnight then centrifuged at 13,000 rpm for 5 minutes and collected the supernatant. Thirty microgram of histone extracts were separated in 15% SDS-PAGE and blotted onto PVDF membrane. After blocking with 5% non-fat milk in TBST, the membrane was then incubated with primary antibody against total histone H4 or total acetyl histone H4 at 4° C. overnight. […]

[4] = system: δ globin; assay: absolute quantitative RT-PCR, proportion of δ globin mRNA; format: cell-based; settings: primary human erythroid cells, at IC50, 3 days; mock 3.3%
Description: as §1, §2, §3

[5] = system: γ globin; assay: absolute quantitative RT-PCR, proportion of γ globin mRNA; format: cell-based; settings: primary human erythroid cells, at IC50, 3 days; mock 7.9%
Description: as §1, §2, §3

| Structure (SMILES) | ε globin proportion of total β-like globin mRNA [1] | γ globin induction (IC50) [2] | EC (μM) induction of HU IC50 (2.3 fold) ([2]; concentration inducing γ globin gene expression 2.3-fold, primary human erythroid cells) | phosphorylation level of p38 [3] | δ globin proportion of total β-like globin mRNA [4] | γ globin proportion of total β-like globin mRNA [5] | expression level of γ globin mRNA ([2]; FIG. 4A, at IC50, 3 days, relative to mock) |
| --- | --- | --- | --- | --- | --- | --- | --- |
| NC(=O)NO [HU, hydroxyurea] | 0.1 ± 0.0% | 2.3 fold | 145.9 µM | significantly increased | 4.5 ± 0.2% | 11.2 ± 1.1% |  |
| CCCC(=O)[O-].[Na+] [NaB, sodium butyrate] | 0.1 ± 0.0% | 1.3 fold |  | significantly increased | 1.8 ± 0.1% | 10.8 ± 1.0% | not |
